# Laboratory results taken from DBAASP.
# Key:
# Assay in all cases: ≥ marks a high value that may be exact or a test limit, other limits are often not marked, values filed in µg/mL are converted to µM
# [1] = system: Candida albicans ATCC 64550
# [2] = system: Staphylococcus epidermidis KCTC 1917
# [3] = system: Pseudomonas aeruginosa CCARM 2095
# [4] = system: Salmonella typhimurium KCTC 1926
# [5] = system: Staphylococcus aureus CCARM 3543
# [6] = system: Staphylococcus aureus KCTC 1621
# [7] = system: Staphylococcus aureus CCARM 3001
# [8] = system: Pseudomonas aeruginosa CCARM 2109
# [9] = system: Pseudomonas aeruginosa KCTC 1637
# [10] = system: Bacillus subtilis KCTC 3068
# [11] = system: Escherichia coli KCTC 1682
# [12] = system: Klebsiella aerogenes BCRC 10370
# [13] = system: Staphylococcus xylosus BCRC 12930
# Vibrio parahaemolyticus = system: Vibrio parahaemolyticus
# [14] = system: Staphylococcus aureus BCRC 10780
# [15] = system: Klebsiella oxytoca BCRC 13985
# [16] = system: Escherichia coli BCRC 10675
# Streptococcus iniae = system: Streptococcus iniae
# [17] = system: Pseudomonas aeruginosa BCRC 10944
# [18] = system: Vibrio alginolyticus BCRC 12829
# [19] = system: Vibrio parahaemolyticus BCRC 10806
# [20] = system: Enterobacter cloacae BCRC 10401
# Vibrio harveyi = system: Vibrio harveyi
# [21] = system: Yersinia enterocolitica BCRC 13999
# [22] = system: Staphylococcus aureus BCRC 10781
# [23] = system: Listeria monocytogenes BCRC 14845
# [24] = system: Streptococcus equinus BCRC 14729
# Vibrio alginolyticus = system: Vibrio alginolyticus
# [25] = system: Vibrio anguillarum serotype O1
# Lactococcus garvieae = system: Lactococcus garvieae
# [26] = system: Staphylococcus epidermidis
# Proteus vulgaris = system: Proteus vulgaris
# Salmonella typhimurium = system: Salmonella typhimurium
# Pseudomonas aeruginosa = system: Pseudomonas aeruginosa
# Bacillus subtilis = system: Bacillus subtilis
# Escherichia coli = system: Escherichia coli
# Streptococcus pyogenes = system: Streptococcus pyogenes
# [27] = system: Staphylococcus epidermidis ATCC 12228
# [28] = system: Staphylococcus aureus ATCC 6538
# [29] = system: Micrococcus luteus ATCC 4698
# [30] = system: Escherichia coli DH5alpha
structure (smiles),measurement,setting,value
CC(C)C[C@H](NC(=O)[C@H](Cc1c[nH]c2ccccc12)NC(=O)[C@H](CCCCN)NC(=O)[C@H](CCCCN)NC(=O)[C@H](Cc1c[nH]c2ccccc12)NC(=O)[C@H](CC(C)C)NC(=O)[C@H](CCCCN)NC(=O)[C@H](Cc1c[nH]c2ccccc12)NC(=O)[C@H](CC(C)C)NC(=O)[C@@H](N)CCCCN)C(=O)N[C@@H](CCCCN)C(N)=O [KLWKLWKKWLK],MIC,[1],≥ 100 µM
same,MIC,[2],2 µM
same,MIC,[3],4 µM
same,MIC,[4],1 µM
same,MIC,[5],4 µM
same,MIC,[6],2 µM
same,MIC,[7],4 µM
same,MIC,[8],8 µM
same,MIC,[9],2 µM
same,MIC,[10],4 µM
same,MIC,[11],2 µM
CC[C@H](C)[C@H](NC(=O)[C@H](Cc1ccccc1)NC(=O)[C@H](CCCCN)NC(=O)[C@H](CC(N)=O)NC(=O)[C@@H](NC(=O)[C@H](Cc1ccc(O)cc1)NC(=O)[C@@H](NC(=O)[C@H](Cc1ccc(O)cc1)NC(=O)[C@H](Cc1ccccc1)NC(=O)[C@H](CCCCN)NC(=O)[C@H](CCCCN)NC(=O)[C@H](C)NC(=O)[C@H](CC(C)C)NC(=O)[C@H](CC(N)=O)NC(=O)[C@H](C)NC(=O)CN)[C@@H](C)O)[C@@H](C)CC)C(=O)N[C@@H](CC(N)=O)C(=O)N[C@@H](Cc1ccc(O)cc1)C(=O)N[C@@H](C)C(=O)N[C@@H](Cc1c[nH]c2ccccc12)C(=O)O [GANLAKKFYTYINKFINYAW],MIC,[12],13.2 µM
same,MIC,[13],26.4 µM
same,MIC,Vibrio parahaemolyticus,6.6 µM
same,MIC,[14],≥ 52.8 µM
same,MIC,[15],≥ 52.8 µM
same,MIC,[16],26.4 µM
same,MIC,Streptococcus iniae,≥ 106 µM
same,MIC,[17],≥ 52.8 µM
same,MIC,[18],≥ 52.8 µM
same,MIC,[19],≥ 52.8 µM
same,MIC,[20],26.4 µM
same,MIC,Vibrio harveyi,3.3 µM
same,MIC,[21],≥ 52.8 µM
same,MIC,[22],≥ 52.8 µM
same,MIC,[23],≥ 52.8 µM
same,MIC,[24],≥ 106 µM
same,MIC,Vibrio alginolyticus,13.2 µM
same,MIC,[25],13.2 µM
same,MIC,Lactococcus garvieae,≥ 106 µM
CC[C@H](C)[C@H](NC(=O)[C@H](CCCCN)NC(=O)[C@H](CCCCN)NC(=O)[C@H](CC(C)C)NC(=O)[C@H](Cc1ccc(O)cc1)NC(=O)[C@H](CC(N)=O)NC(=O)[C@H](Cc1ccc(O)cc1)NC(=O)[C@@H](NC(=O)[C@@H](NC(=O)[C@H](CCCCN)NC(=O)[C@H](C)NC(=O)[C@H](Cc1ccc(O)cc1)NC(=O)[C@H](CCCCN)NC(=O)[C@H](C)NC(=O)CN)[C@@H](C)CC)[C@@H](C)CC)C(=O)N[C@@H](C)C(=O)N[C@@H](CC(N)=O)C(=O)N[C@@H](C)C(=O)N[C@@H](CC(C)C)C(=O)N[C@@H](Cc1c[nH]c2ccccc12)C(=O)O [GAKYAKIIYNYLKKIANALW],MIC,[12],6.83 µM
same,MIC,[13],6.83 µM
same,MIC,Vibrio parahaemolyticus,6.83 µM
same,MIC,[14],3.42 µM
same,MIC,[15],13.7 µM
same,MIC,[16],27.3 µM
same,MIC,Streptococcus iniae,27.3 µM
same,MIC,[17],≥ 54.7 µM
same,MIC,[18],6.83 µM
same,MIC,[19],6.83 µM
same,MIC,[20],6.83 µM
same,MIC,Vibrio harveyi,1.71 µM
same,MIC,[21],≥ 54.7 µM
same,MIC,[22],6.83 µM
same,MIC,[23],13.7 µM
same,MIC,[24],13.7 µM
same,MIC,Vibrio alginolyticus,6.83 µM
same,MIC,[25],27.3 µM
same,MIC,Lactococcus garvieae,≥ 54.7 µM
CC(C)C[C@H](NC(=O)[C@@H](N)CCCN=C(N)N)C(=O)N[C@@H](Cc1c[nH]c2ccccc12)C(=O)N[C@@H](CCCN=C(N)N)C(=O)N[C@@H](CCCN=C(N)N)C(=O)N[C@@H](Cc1c[nH]c2ccccc12)C(=O)N[C@@H](CCCN=C(N)N)C(=O)N[C@@H](CCCN=C(N)N)C(=O)N[C@@H](Cc1c[nH]c2ccccc12)C(=O)N[C@@H](CCCN=C(N)N)C(=O)N[C@@H](CCCN=C(N)N)C(N)=O [RLWRRWRRWRR],MIC,[2],2 µM
same,MIC,[3],16 µM
same,MIC,[4],4 µM
same,MIC,[5],2 µM
same,MIC,[6],4 µM
same,MIC,[7],8 µM
same,MIC,[8],16 µM
same,MIC,[9],8 µM
same,MIC,[10],4 µM
same,MIC,[11],8 µM
CC(C)C[C@H](NC(=O)[C@H](CCCN=C(N)N)NC(=O)[C@@H]1CCCN1C(=O)[C@H](Cc1cnc[nH]1)NC(=O)[C@@H]1CCCN1C(=O)[C@@H]1CCCN1C(=O)[C@H](CCCN=C(N)N)NC(=O)[C@@H]1CCCN1C(=O)[C@@H]1CCCN1C(=O)[C@H](Cc1cnc[nH]1)NC(=O)[C@@H]1CCCN1C(=O)[C@@H]1CCCN1C(=O)[C@H](CCCN=C(N)N)NC(=O)[C@@H]1CCCN1C(=O)[C@@H]1CCCN1C(=O)[C@H](Cc1cnc[nH]1)NC(=O)[C@@H]1CCCN1C(=O)[C@@H]1CCCN1C(=O)[C@H](CCCN=C(N)N)NC(=O)[C@@H]1CCCN1C(=O)[C@@H]1CCCN1C(=O)[C@H](Cc1cnc[nH]1)NC(=O)[C@@H]1CCCN1C(=O)[C@@H]1CCCN1C(=O)[C@H](CCCN=C(N)N)NC(=O)[C@@H]1CCCN1)C(=O)O [PRPPHPPRPPHPPRPPHPPRPPHPRL],MIC,[26],≥ 64 µM
same,MIC,Proteus vulgaris,2 µM
same,MIC,Salmonella typhimurium,0.5 µM
same,MIC,Pseudomonas aeruginosa,4 µM
same,MIC,Bacillus subtilis,≥ 32 µM
same,MIC,Escherichia coli,1 µM
same,MIC,Streptococcus pyogenes,≥ 64 µM
CC(C)C[C@H](NC(=O)[C@H](CC(C)C)NC(=O)[C@H](CCCCN)NC(=O)[C@H](CO)NC(=O)[C@H](CC(C)C)NC(=O)[C@@H](NC(=O)[C@H](CCCCN)NC(=O)[C@H](Cc1ccccc1)NC(=O)[C@H](CC(C)C)NC(=O)[C@@H](NC(=O)CNC(=O)[C@H](CC(C)C)NC(=O)[C@@H](N)Cc1ccccc1)C(C)C)C(C)C)C(=O)O [FLGVLFKVLSKLL],MIC,[27],5.42 µM
same,MIC,[28],2.03 µM
same,MIC,[29],1.35 µM
same,MIC,[30],≥ 271 µM
CC(C)C[C@H](NC(=O)[C@H](CC(C)C)NC(=O)[C@H](CCCCN)NC(=O)[C@H](CO)NC(=O)[C@H](CC(C)C)NC(=O)[C@H](C)NC(=O)[C@H](CCCCN)NC(=O)[C@@H](NC(=O)[C@@H](NC(=O)[C@H](C)NC(=O)CNC(=O)[C@H](CC(C)C)NC(=O)[C@@H](N)Cc1ccccc1)C(C)C)C(C)C)C(=O)O [FLGAVVKALSKLL],MIC,[27],29.4 µM
same,MIC,[28],19.1 µM
same,MIC,[29],10.3 µM
same,MIC,[30],≥ 36.8 µM
